Reference: PubChem BioAssay (NCI)
Where “and” joins values, the source holds several entries; their conditions need not be identical. Identical values can stand only once.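 Cultured in 96-well plates, cells were exposed to test compound for 48 hours across five concentrations. GI50 = concentration required for 50% inhibition of growth. The concentration for full growth arrest is given as TGI.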

Experiments:
Test in all cases: NCI anticancer screen, dose series, 48 h
[1] = test system: EKVX NSCLC
[2] = test system: SK-MEL-28 melanoma
[3] = test system: HL-60(TB) leukemia
[4] = test system: MALME-3M melanoma
[5] = test system: K-562 leukemia
[6] = test system: ACHN renal
[7] = test system: UACC-62 melanoma
[8] = test system: SK-MEL-2 melanoma
[9] = test system: NCI-H226 lung
[10] = test system: A498 renal
[11] = test system: SK-MEL-5 melanoma
[12] = test system: KM12 colon
[13] = test system: PC-3 prostate
[14] = test system: SK-OV-3 ovarian
[15] = test system: HCC-2998 colon
[16] = test system: NCI-H460 lung
[17] = test system: RPMI-8226 leukemia
[18] = test system: NCI-H522 lung
[19] = test system: SF-295 CNS
[20] = test system: OVCAR-8 ovarian
[21] = test system: SF-268 CNS
[22] = test system: UACC-257 melanoma
[23] = test system: IGROV1 ovarian
[24] = test system: BT-549 breast
[25] = test system: HOP-62 NSCLC
[26] = test system: A549 NSCLC
[27] = test system: SNB-75 CNS
[28] = test system: M14 melanoma
[29] = test system: HCT-116 colon
[30] = test system: COLO 205 colon
[31] = test system: NCI-H23 lung
[32] = test system: OVCAR-4 ovarian
[33] = test system: MDA-MB-435
[34] = test system: OVCAR-5 ovarian
[35] = test system: SW-620 colon
[36] = test system: CCRF-CEM leukemia
[37] = test system: OVCAR-3 ovarian
[38] = test system: MDA-MB-231 breast
[39] = test system: MDA-N
[40] = test system: MOLT-4 leukemia
[41] = test system: RXF 393 renal
[42] = test system: LOX IMVI melanoma
[43] = test system: SNB-19 CNS
[44] = test system: SR leukemia
[45] = test system: T-47D breast
[46] = test system: HCT-15 colon
[47] = test system: U251 CNS
[48] = test system: HT29 colon
[49] = test system: DU-145 prostate
[50] = test system: SF-539 CNS
[51] = test system: UO-31 renal
[52] = test system: 786-0 renal
[53] = test system: NCI/ADR-RES ovarian
[54] = test system: HOP-92 NSCLC
[55] = test system: HS 578T breast
[56] = test system: SN12C renal
[57] = test system: MCF7 breast
[58] = test system: TK-10 renal
[59] = test system: CAKI-1 renal

## CCOC(=O)[C@]1(OC(C)=O)C[C@H](OC(C)=O)[C@@H](C(F)COP(=O)(OCc2ccccc2)OCc2ccccc2)O1 (some centres undefined)
[1]
  GI50: 26.3 µM and > 100 µM
  TGI: 71.3 µM and > 100 µM
[2]
  TGI: > 100 µM
[3]
  GI50: 31.9 µM and > 100 µM
  TGI: 86.6 µM and > 100 µM
[4]
  GI50: 13.9 µM and > 100 µM
  TGI: 33.8 µM and > 100 µM
[5]
  TGI: > 100 µM
[6]
  GI50: 34.8 µM and > 100 µM
  TGI: > 100 µM
[7]
  GI50: 16.9 µM and > 100 µM
  TGI: 33.8 µM and > 100 µM
[8]
  GI50: 25 µM and > 100 µM
  TGI: 78.4 µM and > 100 µM
[9]
  TGI: > 100 µM
[10]
  GI50: 24.7 µM and > 100 µM
  TGI: 52.8 µM and > 100 µM
[11]
  TGI: > 100 µM
[12]
  GI50: 19.3 µM and > 100 µM
  TGI: 41.2 µM and > 100 µM
[13]
  TGI: 88 µM and > 100 µM
[14]
  TGI: > 100 µM
[15]
  TGI: > 100 µM
[16]
  GI50: 18.4 µM and > 100 µM
  TGI: 39.9 µM and > 100 µM
[17]
  TGI: 46.5 µM and 82.5 µM
[18]
  GI50: 28.3 µM and > 100 µM
  TGI: 93.7 µM and > 100 µM
[19]
  GI50: 47.9 µM and > 100 µM
  TGI: > 100 µM
[20]
  TGI: > 100 µM
[21]
  TGI: > 100 µM
[22]
  TGI: > 100 µM
[23]
  GI50: 19.6 µM and > 100 µM
  TGI: 39.8 µM and > 100 µM
[24]
  TGI: > 100 µM
[25]
  TGI: > 100 µM
[26]
  TGI: > 100 µM
[27]
  TGI: > 100 µM
[28]
  GI50: 49.4 µM and > 100 µM
  TGI: > 100 µM
[29]
  GI50: 23.4 µM and > 100 µM
  TGI: 57.9 µM and > 100 µM
[30]
  GI50: 19.4 µM and > 100 µM
  TGI: 36.3 µM and > 100 µM
[31]
  GI50: 48.9 µM and > 100 µM
  TGI: > 100 µM
[32]
  GI50: 18 µM and > 100 µM
  TGI: 39 µM and > 100 µM
[33]
  GI50: 18.3 µM and 79.2 µM
  TGI: 38.2 µM and > 100 µM
[34]
  GI50: 32.7 µM and > 100 µM
  TGI: 95 µM and > 100 µM
[35]
  GI50: 20.2 µM and > 100 µM
  TGI: 42.8 µM and > 100 µM
[36]
  TGI: > 100 µM
[37]
  GI50: 29.6 µM and > 100 µM
  TGI: 79.4 µM and > 100 µM
[38]
  TGI: > 100 µM
[39]
  TGI: > 100 µM
[40]
  TGI: > 100 µM
[41]
  GI50: 24.5 µM and > 100 µM
  TGI: 68.2 µM and > 100 µM
[42]
  GI50: 29.4 µM and > 100 µM
  TGI: > 100 µM
[43]
  GI50: 32.9 µM and > 100 µM
  TGI: > 100 µM
[44]
  GI50: 30.2 µM and > 100 µM
  TGI: > 100 µM
[45]
  GI50: 34.2 µM and > 100 µM
  TGI: 93.1 µM and > 100 µM
[46]
  GI50: 33.1 µM and > 100 µM
  TGI: > 100 µM
[47]
  GI50: 35.9 µM and > 100 µM
  TGI: > 100 µM
[48]
  GI50: 28.2 µM and > 100 µM
  TGI: 83 µM and > 100 µM
[49]
  TGI: > 100 µM
[50]
  TGI: > 100 µM
[51]
  GI50: 21.6 µM and > 100 µM
  TGI: 43.5 µM and > 100 µM
[52]
  GI50: 39 µM and > 100 µM
  TGI: > 100 µM
[53]
  TGI: > 100 µM
[54]
  TGI: 34.5 µM
[55]
  TGI: > 100 µM
[56]
  TGI: > 100 µM
[57]
  GI50: 20.8 µM and > 100 µM
  TGI: 45.6 µM and > 100 µM
[58]
  GI50: 18.8 µM and > 100 µM
  TGI: 35.7 µM and > 100 µM
[59]
  TGI: > 100 µM

## O=[N+]([O-])C(=C1NCCN1)/C(Cl)=C(\Cl)Br
[1]
  TGI: > 60.5 µM
[2]
  TGI: > 77.7 µM
[3]
  TGI: 28.2 µM
[4]
  TGI: > 61.7 µM
[5]
  TGI: 31.2 µM
[6]
  TGI: > 100 µM
[7]
  TGI: > 100 µM
[8]
  TGI: > 100 µM
[9]
  TGI: > 100 µM
[10]
  TGI: > 63.4 µM
[11]
  TGI: > 100 µM
[12]
  TGI: > 100 µM
[13]
  TGI: > 100 µM
[14]
  TGI: > 100 µM
[15]
  TGI: > 100 µM
[16]
  TGI: > 100 µM
[17]
  TGI: 62.4 µM
[18]
  TGI: 44.6 µM
[19]
  TGI: > 100 µM
[20]
  TGI: > 100 µM
[21]
  TGI: > 89.9 µM
[22]
  TGI: > 87.3 µM
[23]
  TGI: > 100 µM
[24]
  TGI: > 96 µM
[25]
  TGI: > 100 µM
[26]
  TGI: > 100 µM
[27]
  TGI: > 86.3 µM
[28]
  TGI: > 100 µM
[29]
  TGI: > 73.2 µM
[30]
  TGI: 42.6 µM
[31]
  TGI: > 69.6 µM
[32]
  TGI: > 100 µM
[33]
  TGI: > 63.2 µM
[34]
  TGI: > 100 µM
[35]
  TGI: 27.2 µM
[36]
  TGI: 28.5 µM
[37]
  TGI: 38.7 µM
[38]
  TGI: > 100 µM
[39]
  TGI: > 100 µM
[40]
  TGI: 65.7 µM
[41]
  TGI: 39.1 µM
[42]
  TGI: 33.4 µM
[43]
  TGI: > 100 µM
[44]
  TGI: 55.4 µM
[45]
  TGI: 40.6 µM
[46]
  TGI: 7.93 µM
[47]
  TGI: > 100 µM
[48]
  TGI: > 59 µM
[49]
  TGI: > 100 µM
[50]
  TGI: > 100 µM
[51]
  TGI: > 100 µM
[52]
  TGI: 33.5 µM
[53]
  TGI: > 100 µM
[54]
  TGI: > 62.2 µM
[55]
  TGI: > 100 µM
[56]
  TGI: > 100 µM
[57]
  TGI: > 78.7 µM
[58]
  TGI: > 100 µM
[59]
  TGI: 30 µM

## C[C@@]12C[C@@H](c3ccccc3O1)N1CCCCSC1=N2
[1]
  TGI: > 100 µM
[2]
  TGI: > 100 µM
[3]
  TGI: > 100 µM
[4]
  TGI: > 100 µM
[5]
  TGI: > 100 µM
[6]
  TGI: > 100 µM
[7]
  TGI: > 100 µM
[8]
  TGI: > 100 µM
[9]
  TGI: > 100 µM
[10]
  TGI: > 100 µM
[11]
  TGI: > 100 µM
[12]
  TGI: > 100 µM
[13]
  TGI: > 100 µM
[14]
  TGI: > 100 µM
[15]
  TGI: > 100 µM
[16]
  TGI: > 100 µM
[17]
  TGI: > 100 µM
[18]
  TGI: > 100 µM
[19]
  TGI: > 100 µM
[20]
  TGI: > 100 µM
[21]
  TGI: > 100 µM
[22]
  TGI: > 100 µM
[23]
  TGI: > 100 µM
[24]
  TGI: > 100 µM
[25]
  TGI: > 100 µM
[27]
  TGI: > 100 µM
[28]
  TGI: > 100 µM
[29]
  TGI: > 100 µM
[30]
  TGI: > 100 µM
[31]
  TGI: > 100 µM
[32]
  TGI: > 100 µM
[33]
  TGI: > 100 µM
[34]
  TGI: > 100 µM
[35]
  TGI: > 100 µM
[36]
  TGI: > 100 µM
[37]
  TGI: > 100 µM
[38]
  TGI: > 100 µM
[39]
  TGI: > 100 µM
[40]
  TGI: > 100 µM
[41]
  TGI: > 100 µM
[42]
  TGI: > 100 µM
[43]
  TGI: > 100 µM
[44]
  TGI: > 100 µM
[45]
  TGI: > 100 µM
[46]
  TGI: > 100 µM
[47]
  TGI: > 100 µM
[48]
  TGI: > 100 µM
[49]
  TGI: > 100 µM
[50]
  TGI: > 100 µM
[51]
  TGI: > 100 µM
[52]
  TGI: > 100 µM
[53]
  TGI: > 100 µM
[54]
  TGI: > 100 µM
[55]
  TGI: > 100 µM
[56]
  TGI: > 100 µM
[57]
  TGI: > 100 µM
[58]
  TGI: > 100 µM
[59]
  TGI: > 100 µM
